In US20210340178A1, “NONAPEPTIDE PREVENTING INCREASED HYPERPERMEABILITY OF VASCULAR ENDOTHELIUM” (FEDERALNOYE GOSUDARSTVENNOE BUDGETNOE UCHREZHDENIE …, priority 2018, published 2021):
“Also recorded” adds a separate entry of the source. Like-named read-outs stand apart in the source and are kept apart here. Blank lines part the entries; values can stand above or below the molecule they belong to. Non-standard residues stand in square brackets, D forms with d. Residues, ends and D or L forms follow the SMILES beside them. NMeR = CN[C@@H](CCCNC(=N)N)C(=O)O

What was measured:
[1] = cited from earlier work
[2] = rabbit, in vivo, iv
Protocol: (§3) PIK2 dose of 5 mg/kg was calculated individually for each rabbit and administered into marginal ear vein in a final volume of 1.7-1.9 mL in sterile physiological saline. Stock concentration of the tested substance was 10 mg/mL.
(§4) During the 24-hrs testing period, the overall health status and behavior were monitored (appetite, motion activity, hair coat condition).
(§5) Before injection of test substances (baseline) and 4 hrs and 24 hrs after the injection, the following parameters were tested in whole venous blood samples (3.0-3.5 mL) collected from a marginal ear vein red blood cell (RBC) count, hematocrit, hemoglobin level, mean RBC volume, mean corpuscular hemoglobin, total leukocyte, lymphocyte, and granulocyte counts and their percentages, platelet count, and mean platelet volume. In parallel, the following biochemical parameters were measured in serum total protein, bilirubin, urea, creatinine, glucose, total cholesterol, triglycerides, and activities of alkaline phosphatase, lactate dehydrogenase, aspartate aminotransferase, and alanine aminotransferase. Blood cell count was performed using an Abacus junior vet (Austria) hematological cell counter; biochemical studies were performed using a Targa-2000 (Italy) instrument.

[3] = test system: BALB/c mice; assay: Acute toxicity in mice, single injection; type: in vivo
Protocol: (§1) The study was conducted in 82 BALB/c mice (both males and females, body weight 18-24 g) obtained from the animal facility of the Scientific Center for Biomedical Technologies of the Federal Medico-Biological Agency of the Russian Federation (SCBMT). The animals were certified and otherwise healthy. The animals were kept in T-3 cages (5-10 animals per cage) with artificial 12 hrs light-dark cycles and 16× per hour forced air ventilation, temperature of 20-22° C. and 50-65% humidity on wood chips sterilized by hot air. The animals had free access to drinking water and PK-120-1 mouse cubes (GOST P50258-92; Laboratorsnab LLC, Russia).
(§2) PIK2 and PIK7 peptides were dissolved in water and administered to mice as a single intraperitoneal injection. The animals were followed for 14 days after peptide injections. An increasing dosage scheme was applied where each tested dose surpassed the previous dose by 50%. The lowest dose of the active substance was determined that caused animal death.

[4] = Acute toxicity in mice, single injection; type: in vivo; settings: mouse, in vivo
Protocol: as §1, §2

[5] = in vivo; settings: male, Chinchilla, rabbit, 5 mg/kg
Protocol: as §3, §4, §5

[6] = test system: Chinchilla rabbits; assay: Tolerance of a single intravenous injection in Chinchilla rabbits; settings: i.v. 5 mg/kg
Protocol: as §3, §4, §5

[7] = test system: lung edema in rats; settings: cited from earlier work
[8] = test system: EA.hy926 endothelial cell monolayer; assay: Thrombin-mediated FITC-dextran permeability through endothelial cell monolayer; type: cell-based; settings: peptide 100 μM, 60 min preincubation; thrombin 100 nM; 70 kDa FITC-dextran
Protocol: FIG. 3. The thrombin-mediated FITC-dextran permeability through the EA.hy926 endothelial cell monolayer in the presence of myosin light chain kinase peptide inhibitors. Thrombin (100 nM) was added at 0 min, the cells were preincubated for 60 min with MLCK peptide inhibitors (100 μM). Data are presented as mean±SD, n=5. p<0.05 for all data points within the 20-180 min time course range as compared to the thrombin-stimulated control.
Effects of the claimed peptide (PIK7), the prototype (PIK2), and the analogue (MLC11-19) on the endothelial permeability was assayed in a model of FITC-dextran diffusion through the endothelial monolayer as described in Example 3.
Cells were grown in 24-well plates (Greiner Bio-one, Austria) equipped with special inserts to form inner (upper) chambers with a porous bottom (the pore diameter of 0.4 μm, pore density of 10^8/cm^2) in DMEM until monolayer was formed (3-4 days). Successful monolayer was checked by measuring FITC-dextran diffusion for 1 hour through inserts with cell monolayers vs inserts without cells (‘blank’ inserts). Experiments were performed in triplicates when tight monolayers were formed. On the day of experiment, the cells were deprived for 1 h in DMEM supplemented with MLCK inhibitors or without inhibitors (control). After deprivation, FITC-dextran was added to the upper compartment to a final concentration of 0.05 mg/ml. In 30 and 60 min, a 10-μ1 aliquot was withdrawn from the lower compartment and mixed with 100 μl phosphate buffered saline pH 7.3 in a 96-well plate to estimate the endothelial monolayer baseline permeability. […] During the next 3 hrs, every 30 min, aliquots were taken from the lower compartment, and intensity of FITC fluorescence was measured using a Victor 3X plate reader (Perkin Elmer, USA) to plot the dynamics of the FITC fluorescence changes.
As shown, 100 nM thrombin induces the endothelial hyperpermeability response as reflected by an increase in 70 kDa FITC-dextran diffusion through the endothelial monolayer and an incremental increase in the fluorescence in the lower compartment of the diffusion chamber. […]

[9] = test system: endothelial hyperpermeability; settings: cited from earlier work
[10] = molecular target: smooth-muscle myosin light-chain kinase; settings: Hunt et al., 1989; cited from earlier work
[11] = Peptide half-lives in human plasma in vitro (1H-NMR spectroscopy); type: in vitro ADME; settings: human, plasma, 1H-NMR, 37° C., peptide 3 mg/ml; read-out: T1/2, half-life in human plasma in vitro
Protocol: Whole blood (100 mL) was collected from healthy donors to 50-mL tubes containing 5 mL of a preservative (130 mM citrate in phosphate buffered saline (PBS), pH 7.4). The blood was incubated for 15-20 min at room temperature followed by centrifugation at 1500 g for 15 min at 18° C. The supernatants were transferred to clear tubes and centrifuged as above. Dry NaBr was added to the plasma (280 mg per 1 mL of plasma). After dissolution of NaBr, the plasma (approx. 30 mL) was transferred to centrifuge tubes (Type 45Ti rotor, Beckman, USA) and layered with 20 mL of a solution (specific mass of […]), which was prepared as follows—11.42 g of NaCl and 100 mg of ethylenediaminetetraacetic acid (EDTA) were dissolved in distilled water in a final volume of 1 L (pH 7.4) and 281.44 g of NaBr was added. The plasma was centrifuged at 40,000 rpm for 48 hrs. The upper dark-yellow fraction containing lipoproteins and the colorless buffer fraction were discarded leaving approx. 1-cm high buffer above the apparent plasma border. Portions of plasma obtained from one donor were pooled and dialyzed for 36 hrs against 4 L of PSB free of Ca^2+ and Mg^2+(MP Biomedicals, USA) in dialysis bags with 12-14 kDa pore sizes. The dialysis procedure was repeated twice with fresh buffer changed every 24 hrs. After the dialysis, the plasma was centrifuged at 25,000 rpm (Type 45Ti rotor, Beckman, USA) for 15 min at 4° C. The supernatant fraction was collected and lyophilized. The dry matter was dissolved in D2O in a final volume equal to the plasma volume before NaBr was added, lyophilized again, dissolved in the same volume of D2O, and stored in 1-mL aliquots at −20° C. before use.
^1H-NMR spectroscopy was employed to analyze relative degradation of PIK7 (the claimed peptide) and MLC11-19 (the structural analogue) in human plasma. ^1H-NMR spectroscopy allows simultaneous direct monitoring the amounts of original full-length peptide and its fragments during the course of enzymatic hydrolysis (Isakova et al., 1986). Stability of a peptide, its degradation pathway(s) and a half-life estimate are available from a comparison of spectra obtained at different time points after the addition of a peptide to plasma. ^1H-NMR spectra were obtained using a WM-500 spectrometer (Bruker, Germany) at 37° C. Chemical shifts in ^1H-NMR spectra were measured relative to an internal standard (2,2-dimethyl-2-silapentane-5-sulfonate sodium salt). The signals were referenced by the double-resonance method. The resonances from peptide protons were identified by the differential spectroscopy method, i.e. the spectrum of blood plasma was subtracted from each spectrum obtained in the presence of peptide of interest. Peptide concentrations were 3 mg/ml.
These indicate the peptide N-terminus degradation. […] Therefore, the claimed peptide has an increased life-span in plasma that allows for long-lasting maintenance of its effective concentrations necessary to decrease the endothelial hyperpermeability under emergency conditions. Moreover, an increased life-time allows attaining the desired therapeutic effect with lower (as compared to homologues) peptide concentrations.

[12] = test system: MLC phosphorylation in neutrophils; settings: Chilcoat et al., 2008; cited from earlier work
[13] = molecular target: MLCK (Homo sapiens, UniProt Q15746); settings: in vitro; Sekridova et al., 2010 / RU 2402565; cited from earlier work

Molecule: CN[C@@H](CCCNC(=N)N)C(=O)N[C@@H](CCCCN)C(=O)N[C@@H](CCCCN)C(=O)N[C@@H](Cc1ccc(O)cc1)C(=O)N[C@@H](CCCCN)C(=O)N[C@@H](Cc1ccc(O)cc1)C(=O)N[C@@H](CCCNC(=N)N)C(=O)N[C@H](CCCNC(=N)N)C(=O)N[C@@H](CCCCN)C(N)=O [PIK2, H—(N—Me)-Arg^1-Lys-Lys-Tyr-Lys-Tyr-Arg^7-D-Arg^8-Lys-NH2] (H-[NMeR]KKYKYR[dR]K-NH2)
T1/2, half-life in human plasma in vitro ([1]; Khapchaev et al., 2016): >540 min
stability, fold higher as compared to PIK1 ([1]; RU 2493164): 4 fold
LD50 [2]: ≤ 5 mg/kg
lowest dose of the active substance that caused animal death ([3]; BALB/c mice, single intraperitoneal injection, followed 14 days): 27 mg/kg
signs after a toxic dose ([3]; mice, single intraperitoneal injection of a toxic dose): movement retardation and death within the following 24 hrs
LD50 at 14 days ([4]; both sexes, BALB/c, intraperitoneal, mice, Table 3): 18 mg/kg
LD50 ([4]; after single intravenous injection (as printed in b7), read-out: LD50 in mice): 18 mg/kg
LD50 at 24 h [5]: 5 mg/kg
mortality ([6]; group of 4): two rabbits died on the 7th and 10th minute
clinical signs after injection ([6]; second minute after injection): irregular breathing, shortness of breath, muscular stiffness, prone position with straighten extremities
effect on endothelial hyperpermeability response and lung edema [7]: abrogation of the endothelial hyperpermeability response and lung edema in rats
effect on thrombin-induced FITC-dextran hyperpermeability [8]: completely abolished the FITC-dextran hyperpermeability; also recorded: effectively abolished FITC-dextran hyperpermeability
effect on thrombin-mediated endothelial hyperpermeability in vitro ([9]; peptide 20 μM): completely abolished the thrombin-mediated endothelial hyperpermeability

Molecule: H-D-Lys-Lys-Arg-Ala-Ala-Arg-NH2 (H-[dK]KRAAR-NH2; SMILES C[C@H](NC(=O)[C@H](C)NC(=O)[C@H](CCCNC(=N)N)NC(=O)[C@H](CCCCN)NC(=O)[C@H](N)CCCCN)C(=O)N[C@@H](CCCNC(=N)N)C(N)=O) [RLC 11-16 hexapeptide with N-terminal L-Lys substituted with D-Lys]
IC50 [10]: 180 µM

half-life [11]: 32 min
Molecule: H-KKRAARATS-NH2 [MLC11-19, H-Lys-Lys-Arg-Ala-Ala-Arg-Ala-Thr-Ser-NH2]
effect on MLC phosphorylation in neutrophils [12]: decreases MLC phosphorylation in neutrophils
effect on thrombin-induced FITC-dextran hyperpermeability [8]: completely abolished the FITC-dextran hyperpermeability; also recorded: effectively abolished FITC-dextran hyperpermeability

Molecule: H-L-Lys-Lys-Arg-Ala-Ala-Arg-NH2 (H-KKRAAR-NH2)
IC50 [10]: 22 µM

Molecule: H-MeArg^1-Lys-Lys-Tyr-Lys-Tyr-Arg-Arg-Lys-NH2 (H-[NMeR]KKYKYRRK-NH2) [PIK1, L-PIK modified at the N-terminal amino acid]
half-life in human plasma in vitro, fold higher as compared to L-PIK ([1]; RU 2402565): ~3 fold
inhibition of thrombin-mediated endothelial hyperpermeability ([9]; peptide 100 μM): 1.6 fold
inhibitory activity compared to L-PIK [13]: comparable to that of L-PIK
